The subject of test [1] is metabolism of retinoic acid in human breast cancer cells. Nature of the test: Inhibition of retinoic acid (RA) metabolism (Example C.1). The format is cell-based. The conditions noted are these: MCF-7 human breast cancer cells, 3H-RA as substrate; concentration needed to reduce the amount of metabolites to 50% of the control. An excerpt:
The property to delay the metabolism of retinoic acid can be evidenced in various in vitro and in vivo experiments. A particular in vitro procedure is described in example C.1 and tests the inhibitory activity of the compounds of formula (I) on the metabolism of retinoic acid in human breast cancer cells. The compounds of the present invention were also effective in suppressing induced vaginal keratinization effects in ovariectomized rats as is described in example C.2.
Inhibition of Retinoic Acid (RA) Metabolism
MCF-7 human breast cancer cells were grown as stock cultures according to art-known protocols. One day before the experiment, RA is added to the stock cultures to stimulate RA-metabolism. At the start of the experiment, cell suspensions were incubated in a tissue culture medium containing ^3H-RA as the substrate. Different concentrations of the test compound (dissolved in 1% DMSO) were added to the incubation mixtures, and at the end of the incubation, the unmetabolized RA is separated from its polar metabolites. The fraction containing the polar ^3H-labelled metabolites was collected and counted in a scintillation counter. For each experiment, a control and a blank incubation were run in parallel. Table 22 list the IC50 value (defined as the concentration in M needed to reduce the amount of metabolites to 50% of the control).

In a further test the test system is Ovariectomized rats. Briefly: Vaginal keratinization test on ovariectomized rats (Example C.2). The class given is in vivo. The conditions noted are these: estradiol undecylate induced keratinization, per os once daily on days 1-3, active dose = 50% of rats show complete suppression. The method, boiled down:
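Value is the lowest oral dose (mg/kg) at which half of tested rats show complete suppression of estradiol undecylate-induced vaginal keratinization by histology. Ovariectomized rats received 100 μg/100 g estradiol undecylate s.c., then compound or PEG 200 vehicle p.o. daily for three days; sacrifice one day later.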

Take `CCCC(=C(C)C(=O)Nc1ccc(C(C(C)C)n2ccnc2)cc1)c1ccccc1` (mixture of isomers) [Compound 519]: in test [1], the IC50 (as a rule, the concentration that inhibits the measured activity by half) came out at 3.8 nM. The “LAD (lowest active dose)” value in the test on Ovariectomized rats is more than 10.00 mg/kg.

As for `CCC(C)C(c1ccc(NC(=O)Cc2ccc(OC)c(OC)c2)cc1)n1cncn1` (mixture of isomers) [Compound 640], in test [1], the IC50 was 2.17 nM. Further, the “LAD (lowest active dose)” value in the test on Ovariectomized rats was more than 2.50 mg/kg.

Consider `CC(C)C(c1ccc(NC(=O)C(c2ccccc2)C2CCCC2)cc1)n1ccnc1` (mixture of isomers) [Compound 659], for which the IC50 in test [1] was more than 100 nM. Further, the “LAD (lowest active dose)” value in the test on Ovariectomized rats is listed as more than 10.00 mg/kg.

On to `CCC(C(=O)Nc1ccc(C(C(C)C)n2ccnc2)cc1)c1ccccc1` (mixture of isomers) [Compound 660], for which the IC50 in test [1] came out at 6.37 nM. The “LAD (lowest active dose)” value in the test with Ovariectomized rats is given as more than 10.00 mg/kg.

As to `CC(C)C(c1ccc(NC(=O)C(c2ccccc2)C2CCCCC2)cc1)n1ccnc1` (mixture of isomers) [Compound 661], the IC50 in test [1] stood at 34 nM. The “LAD (lowest active dose)” value in the test on Ovariectomized rats is recorded as more than 10.00 mg/kg.

Regarding `COC(C(=O)Nc1ccc(C(C(C)C)n2ccnc2)cc1)c1ccccc1` (mixture of isomers) [Compound 670], the IC50 in test [1] stood at 5.72 nM. The “LAD (lowest active dose)” value in the test with Ovariectomized rats is reported as more than 2.50 mg/kg.

For the compound `CCC(CC)C(c1ccc(NC(=O)/C(C)=C/c2ccccc2)cc1)n1cncn1` (racemic) [Compound 2], in test [1], the IC50 is 0.03 nM. Moreover, the “LAD (lowest active dose)” value with Ovariectomized rats is 5.00 mg/kg.

As for `CCC(CC)C(c1ccc(NC(=O)Cc2ccc3c(c2)OCO3)cc1)n1cncn1` (racemic) [Compound 5], the IC50 in test [1] is 0.27 nM. The “LAD (lowest active dose)” value with Ovariectomized rats was more than 2.50 mg/kg.

`CCC(CC)C(c1ccc(NC(=O)c2ccc(OC)c(OC)c2)cc1)n1cncn1` (racemic) [Compound 6]: the IC50 in test [1] amounted to 1.65 nM. Also, the “LAD (lowest active dose)” value in the test with Ovariectomized rats is given as 2.50 mg/kg.

Regarding `CCC(CC)C(c1ccc(NC(=O)Cc2ccc3c(c2)OCCO3)cc1)n1cncn1` (racemic) [Compound 7], the IC50 in test [1] was determined as 0.79 nM. The “LAD (lowest active dose)” value with Ovariectomized rats is listed as more than 2.50 mg/kg.

As for `CCC(CC)C(c1ccc(NC(=O)CCc2ccc(OC)c(OC)c2)cc1)n1cncn1` (racemic) [Compound 10], the IC50 in test [1] was 1.55 nM. In addition, the “LAD (lowest active dose)” value in the test with Ovariectomized rats is on record as 2.50 mg/kg.

Take `CCC(CC)C(c1ccc(NC(=O)C(O)c2ccc(Cl)cc2)cc1)n1cncn1` (racemic) [Compound 18, (±)-(A2)-4-chloro-N-[4-[2-ethyl)-1-(1H-1,2,4-triazol-1-yl)butyl]phenyl]-α-hydroxybenzeneacetamide]: the IC50 in test [1] amounted to 0.872 nM. Moreover, in the test with Ovariectomized rats, the “LAD (lowest active dose)” value came out at 2.50 mg/kg.

As for `CCC(CC)C(c1ccc(NC(=O)c2ccccc2)cc1)n1ccnc1` (racemic) [Compound 22], in test [1], the IC50 came out at 1.04 nM. Besides, the “LAD (lowest active dose)” value with Ovariectomized rats was found to be 2.50 mg/kg.

On to `CCC(CC)C(c1ccc(NC(=O)C(C)(C)O)cc1)n1ccnc1` (racemic) [Compound 24], for which, in test [1], the IC50 was found to be 1.37 nM. Also, in the test on Ovariectomized rats, the “LAD (lowest active dose)” value is 2.50 mg/kg.

As to `CCC(CC)C(c1ccc(NC(=O)C2=COc3ccccc3O2)cc1)n1ccnc1` (racemic) [Compound 25], the IC50 in test [1] was determined as 61 nM. In the test on Ovariectomized rats, the “LAD (lowest active dose)” value is on record as 10.00 mg/kg.

As for `CCC(CC)C(c1ccc(NC(=O)c2cnccn2)cc1)n1ccnc1` (racemic) [Compound 27], the IC50 in test [1] worked out at 0.232 nM. For the same compound, in the test with Ovariectomized rats, the “LAD (lowest active dose)” value is 5.00 mg/kg.

Consider `CCC(CC)C(c1ccc(NC(=O)Cc2ccc3c(c2)OCO3)cc1)n1ccnc1` (racemic) [Compound 28], for which the IC50 in test [1] amounted to 2.76 nM. Moreover, the “LAD (lowest active dose)” value in the test with Ovariectomized rats came to 2.50 mg/kg.

With `CCC(CC)C(c1ccc(NC(=O)c2ccc3c(c2)C(C)(C)CCC3(C)C)cc1)n1ccnc1` (racemic) [Compound 30], the IC50 in test [1] amounted to 25.8 nM. In the test with Ovariectomized rats, the “LAD (lowest active dose)” value is more than 5.00 mg/kg.

For `CCC(CC)C(c1ccc(NC(=O)C2=Cc3ccccc3OC2)cc1)n1ccnc1` (racemic) [Compound 31], in test [1], the IC50 was 2.63 nM. The “LAD (lowest active dose)” value in the test on Ovariectomized rats was determined as 5.00 mg/kg.

`CCC(CC)C(c1ccc(NC(=O)CCc2ccc(OC)c(OC)c2)cc1)n1ccnc1` (racemic) [Compound 32]: in test [1], the IC50 amounted to 0.697 nM. Also, the “LAD (lowest active dose)” value in the test with Ovariectomized rats came to 5.00 mg/kg.

As to `CCOc1ccc(C(=O)Nc2ccc(C(C(CC)CC)n3ccnc3)cc2)cc1` (racemic) [Compound 35], in test [1], the IC50 was found to be 2.24 nM. The “LAD (lowest active dose)” value in the test on Ovariectomized rats turned out to be 2.50 mg/kg.

For `CCC(CC)C(c1ccc(NC(=O)Cc2ccc3c(c2)OCCO3)cc1)n1ccnc1` (racemic) [Compound 36], the IC50 in test [1] turned out to be 1.43 nM. For the same compound, the “LAD (lowest active dose)” value in the test with Ovariectomized rats was 5.00 mg/kg.

For `CCC(CC)C(c1ccc(NC(=O)COc2ccccc2OC)cc1)n1ccnc1` (racemic) [Compound 37], in test [1], the IC50 was determined as 1 nM. The “LAD (lowest active dose)” value in the test on Ovariectomized rats is recorded as 5.00 mg/kg.

For the compound `CCC(CC)C(c1ccc(NC(=O)Cc2ccc3c(c2)C(C)(C)CCC3(C)C)cc1)n1ccnc1` (racemic) [Compound 38], the IC50 in test [1] was 1.04 nM. Also, the “LAD (lowest active dose)” value with Ovariectomized rats is on record as 5.00 mg/kg.

Turning to `CCOc1ccc(CCC(=O)Nc2ccc(C(C(CC)CC)n3ccnc3)cc2)cc1` (racemic) [Compound 39], in test [1], the IC50 came to 0.104 nM. For the same compound, the “LAD (lowest active dose)” value in the test on Ovariectomized rats is recorded as 0.60 mg/kg.

On to `CCC(CC)C(c1ccc(NC(=O)c2ccc(OC)nc2)cc1)n1ccnc1` (racemic) [Compound 45], for which, in test [1], the IC50 came out at 0.172 nM. Further, the “LAD (lowest active dose)” value in the test with Ovariectomized rats was 2.50 mg/kg.

Take `CCC(CC)C(c1ccc(NC(=O)C2CCN(C(=O)c3ccccc3)CC2)cc1)n1ccnc1` (racemic) [Compound 46]: in test [1], the IC50 came out at 1.95 nM. Further, in the test with Ovariectomized rats, the “LAD (lowest active dose)” value is more than 2.50 mg/kg.

Take `CCC(CC)C(c1ccc(NC(=O)CN2CCOCC2)cc1)n1ccnc1` (racemic) [Compound 47]: in test [1], the IC50 came to 1.33 nM. Besides, the “LAD (lowest active dose)” value in the test with Ovariectomized rats was 2.50 mg/kg.

As for `CCOc1ccc(CCCC(=O)Nc2ccc(C(C(CC)CC)n3ccnc3)cc2)cc1` (racemic) [Compound 48], the IC50 in test [1] was 0.569 nM. In addition, the “LAD (lowest active dose)” value in the test with Ovariectomized rats worked out at 2.50 mg/kg.

On to `CCC(CC)C(c1ccc(NC(=O)COc2ccccc2O)cc1)n1ccnc1` (racemic) [Compound 49], for which the IC50 in test [1] was determined as 0.433 nM. Moreover, the “LAD (lowest active dose)” value with Ovariectomized rats is given as 2.50 mg/kg.

Take `CCC(CC)C(c1ccc(NC(=O)CCCc2ccc(OC)c(OC)c2)cc1)n1ccnc1` (racemic) [Compound 52]: the IC50 in test [1] turned out to be 0.907 nM. Also, the “LAD (lowest active dose)” value in the test on Ovariectomized rats is listed as 2.50 mg/kg.

Consider `CCC(CC)C(c1ccc(NC(=O)C2CCN(C(=O)OC(C)(C)C)CC2)cc1)n1ccnc1` (racemic) [Compound 53], for which, in test [1], the IC50 amounted to 2.12 nM. Further, in the test with Ovariectomized rats, the “LAD (lowest active dose)” value is on record as more than 2.50 mg/kg.

As for `CCC(CC)C(c1ccc(NC(=O)Cc2ccc3nc(N)sc3c2)cc1)n1ccnc1` (racemic) [Compound 58], the IC50 in test [1] was less than 0.01 nM. In addition, the “LAD (lowest active dose)” value in the test with Ovariectomized rats was 5.00 mg/kg.

`CCC(CC)C(c1ccc(NC(=O)Nc2nc3ccccc3s2)cc1)n1cncn1` (racemic) [Compound 63]: the IC50 in test [1] was determined as 6.7 nM. The “LAD (lowest active dose)” value in the test with Ovariectomized rats is listed as more than 5.00 mg/kg.

Take `CCC(CC)C(c1ccc(NC(=O)Nc2nc3ccccc3s2)cc1)n1ccnc1` (racemic) [Compound 64]: in test [1], the IC50 came out at 6.6 nM. In the test with Ovariectomized rats, the “LAD (lowest active dose)” value is more than 5.00 mg/kg.

With `CCC(CC)C(c1ccc(NC(=O)Cc2ccc(C)cc2)cc1)n1cncn1` (racemic) [Compound 65], the IC50 in test [1] was 0.379 nM. Further, in the test with Ovariectomized rats, the “LAD (lowest active dose)” value worked out at 5.00 mg/kg.

For `CCC(CC)C(c1ccc(NC(=O)Cc2ccc(Cl)cc2)cc1)n1cncn1` (racemic) [Compound 66], the IC50 in test [1] was determined as 0.356 nM. Moreover, the “LAD (lowest active dose)” value in the test on Ovariectomized rats is recorded as 2.50 mg/kg.

For the compound `CCC(CC)C(c1ccc(NC(=O)Cc2cccc(O)c2)cc1)n1cncn1` (racemic) [Compound 67], the IC50 in test [1] is 0.334 nM. Moreover, the “LAD (lowest active dose)” value in the test on Ovariectomized rats is listed as 2.50 mg/kg.

`CCC(CC)C(c1ccc(NC(=O)Cc2ccc(F)cc2)cc1)n1cncn1` (racemic) [Compound 68]: the IC50 in test [1] amounted to 1.72 nM. Moreover, the “LAD (lowest active dose)” value in the test with Ovariectomized rats is given as 5.00 mg/kg.

Take `CCC(CC)C(c1ccc(NC(=O)Cc2ccc(O)cc2)cc1)n1cncn1` (racemic) [Compound 69]: in test [1], the IC50 came out at 0.25 nM. The “LAD (lowest active dose)” value in the test on Ovariectomized rats came to 2.50 mg/kg.

For `CCC(CC)C(c1ccc(NC(=O)Cc2cccc(OC)c2)cc1)n1cncn1` (racemic) [Compound 70], the IC50 in test [1] was 0.295 nM. The “LAD (lowest active dose)” value in the test with Ovariectomized rats was 5.00 mg/kg.

For the compound `CCOc1ccc(CC(=O)Nc2ccc(C(C(CC)CC)n3cncn3)cc2)cc1` (racemic) [Compound 71], the IC50 in test [1] was 0.262 nM. Further, in the test with Ovariectomized rats, the “LAD (lowest active dose)” value is given as more than 5.00 mg/kg.

Regarding `CCC(CC)C(c1ccc(NC(=O)Cc2ccc(O)c(OC)c2)cc1)n1cncn1` (racemic) [Compound 72], the IC50 in test [1] was determined as 1.66 nM. In the test with Ovariectomized rats, the “LAD (lowest active dose)” value is on record as 2.50 mg/kg.

For `CCC(CC)C(c1ccc(NC(=O)Cc2ccc(OC)c(OC)c2)cc1)n1cncn1` (racemic) [Compound 73], in test [1], the IC50 worked out at 0.463 nM. Further, in the test on Ovariectomized rats, the “LAD (lowest active dose)” value is on record as more than 2.50 mg/kg.
